Assay results taken from ChEMBL document CHEMBL1147549, “Imidazole acetic acid TAFIa inhibitors: SAR studies centered around the basic P(1)(') group” (Bioorg Med Chem Lett, 2004).

Experiments:
Carboxypeptidase B2 = molecular target: T1, Carboxypeptidase B2 (Homo sapiens, UniProt Q96IY4); assay: Inhibitory potency against human TAFIa (thrombin-activatable fibrinolysis inhibitor)
T1 sequence (Q96IY4 whole entry): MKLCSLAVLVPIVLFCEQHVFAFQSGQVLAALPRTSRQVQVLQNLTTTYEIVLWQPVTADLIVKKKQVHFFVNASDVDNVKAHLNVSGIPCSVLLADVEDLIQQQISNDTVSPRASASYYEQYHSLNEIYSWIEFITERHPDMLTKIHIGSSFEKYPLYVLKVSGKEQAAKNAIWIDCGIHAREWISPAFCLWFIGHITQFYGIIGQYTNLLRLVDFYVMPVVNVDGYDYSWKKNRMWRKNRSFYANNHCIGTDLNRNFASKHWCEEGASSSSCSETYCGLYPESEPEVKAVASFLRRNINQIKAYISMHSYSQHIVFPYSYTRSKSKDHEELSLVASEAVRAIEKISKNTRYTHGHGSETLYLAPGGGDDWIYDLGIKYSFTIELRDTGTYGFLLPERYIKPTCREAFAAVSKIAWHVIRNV

Carboxypeptidase B = molecular target: T2, Carboxypeptidase B (Homo sapiens, UniProt P15086); assay: Inhibition of human carboxypeptidase B (CPB)
T2 sequence (P15086 whole entry): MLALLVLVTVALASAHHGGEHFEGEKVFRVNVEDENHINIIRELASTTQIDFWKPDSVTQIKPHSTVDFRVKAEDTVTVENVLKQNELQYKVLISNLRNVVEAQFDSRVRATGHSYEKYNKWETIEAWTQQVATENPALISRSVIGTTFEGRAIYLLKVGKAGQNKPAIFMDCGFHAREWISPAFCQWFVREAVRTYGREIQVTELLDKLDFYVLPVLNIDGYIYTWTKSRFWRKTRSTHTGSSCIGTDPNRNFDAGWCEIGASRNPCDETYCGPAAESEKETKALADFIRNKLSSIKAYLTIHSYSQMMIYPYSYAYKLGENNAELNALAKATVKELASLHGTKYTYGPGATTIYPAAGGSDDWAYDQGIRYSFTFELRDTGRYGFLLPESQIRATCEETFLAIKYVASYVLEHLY

[1] = Concentration providing 50% acceleration of clot lysis in pooled human plasma; assay type: functional
Homo sapiens = species on record: Homo sapiens; assay: Selectivity for TAFIa versus CPB carboxypeptidase B isoforms

## O=C(O)C(CC1CNC1)c1cnc[nH]1 (configuration not stated)
Carboxypeptidase B2
  IC50: > 20 µM

## Cc1nc(N)ccc1CC(C(=O)O)c1c[nH]cn1 (configuration not stated)
Carboxypeptidase B2
  IC50: 5.8 µM

## CNc1ccc(CC(C(=O)O)c2cnc[nH]2)cn1 (configuration not stated)
Carboxypeptidase B2
  IC50: 13 µM

## Cc1cc(CC(C(=O)O)c2cn(CCC(C)C)cn2)cnc1N (configuration not stated)
Carboxypeptidase B
  IC50: 0.001 µM
[1]
  CLT50: 0.17 µM
Carboxypeptidase B2
  IC50: 0.023 µM
Homo sapiens
  Selectivity: 0.04

## O=C(O)C(Cc1ccc2nccn2c1)c1cnc[nH]1 (configuration not stated)
Carboxypeptidase B2
  IC50: 3.3 µM

## O=C(O)C(CCC1CNC1)c1cnc[nH]1 (configuration not stated)
Carboxypeptidase B2
  IC50: > 20 µM

## O=C(O)C(CC1CCNCC1)c1cnc[nH]1 (configuration not stated)
Carboxypeptidase B2
  IC50: > 20 µM

## CC(C)(C)CCn1cnc(C(C[C@H]2CC[C@H](N)C2)C(=O)O)c1 (some centres not stated)
Carboxypeptidase B
  IC50: 0.001 µM
[1]
  CLT50: 0.014 µM
Carboxypeptidase B2
  IC50: 0.001 µM
Homo sapiens
  Selectivity: 1

## CC(CN)CCC(C(=O)O)c1c[nH]cn1 (configuration not stated)
Homo sapiens
  Selectivity: 5.6

## O=C(O)C(CCC1CCNCC1)c1c[nH]cn1 (configuration not stated)
Carboxypeptidase B2
  IC50: > 20 µM

## CC(CN)CCC(C(=O)O)c1cnc[nH]1 (configuration not stated)
Carboxypeptidase B
  IC50: 1.5 µM
Carboxypeptidase B2
  IC50: 0.27 µM

## O=C(O)C(CC1CCNC1)c1c[nH]cn1 (configuration not stated)
Carboxypeptidase B2
  IC50: > 20 µM

## Nc1ncc(CC(C(=O)O)c2c[nH]cn2)cc1F (configuration not stated)
Carboxypeptidase B2
  IC50: 6.7 µM

## Nc1cccc(CC(C(=O)O)c2cnc[nH]2)n1 (configuration not stated)
Carboxypeptidase B2
  IC50: 15 µM

## NC1CCCC(CC(C(=O)O)c2c[nH]cn2)C1 (configuration not stated)
Carboxypeptidase B2
  IC50: > 20 µM

## NCCCC(C(=O)O)c1cnc[nH]1 (configuration not stated)
Carboxypeptidase B2
  IC50: 6.8 µM

## Nc1ncc(CC(C(=O)O)c2cnc[nH]2)cc1Cl (configuration not stated)
Carboxypeptidase B2
  IC50: 5.3 µM

## CC(C)CCn1cnc(C(Cc2ccc(N)nc2)C(=O)O)c1 (configuration not stated)
Carboxypeptidase B
  IC50: 0.004 µM
[1]
  CLT50: ==0.12 uM

## CC(C)CCn1cnc(C(CCCCN)C(=O)O)c1 (configuration not stated)
Carboxypeptidase B
  IC50: 0.16 µM
[1]
  CLT50: 0.21 µM
Carboxypeptidase B2
  IC50: 0.024 µM
Homo sapiens
  Selectivity: 6.7

## Cc1cc(CC(C(=O)O)c2c[nH]cn2)cnc1N (configuration not stated)
Carboxypeptidase B
  IC50: 0.02 µM
[1]
  CLT50: 2.1 µM
Carboxypeptidase B2
  IC50: 0.1 µM
Homo sapiens
  Selectivity: 0.2

## Nc1cc(CC(C(=O)O)c2c[nH]cn2)ccn1 (configuration not stated)
Carboxypeptidase B2
  IC50: 12 µM

## CN(C)CCCCC(C(=O)O)c1cnc[nH]1 (configuration not stated)
Carboxypeptidase B2
  IC50: > 50 µM

## NCCCCCC(C(=O)O)c1cnc[nH]1 (configuration not stated)
Carboxypeptidase B2
  IC50: 4.7 µM

## O=C(O)C(CC1CCCNCC1)c1c[nH]cn1 (configuration not stated)
Carboxypeptidase B2
  IC50: > 20 µM

## O=C(O)C(CCC1CCCNCC1)c1cnc[nH]1 (configuration not stated)
Carboxypeptidase B2
  IC50: > 20 µM

## Cc1cc(N)ncc1CC(C(=O)O)c1c[nH]cn1 (configuration not stated)
Carboxypeptidase B2
  IC50: 1.5 µM

## Nc1ncc(CC(C(=O)O)c2c[nH]cn2)cn1 (configuration not stated)
Carboxypeptidase B2
  IC50: 67 µM

## Cc1cc(CC(C(=O)O)c2cn(CCC(C)(C)C)cn2)cnc1N (configuration not stated)
Carboxypeptidase B
  IC50: 0.001 µM
[1]
  CLT50: 0.159 µM
Carboxypeptidase B2
  IC50: 0.012 µM
Homo sapiens
  Selectivity: 0.08

## NCCCCC(C(=O)O)c1c[nH]cn1 (configuration not stated)
Carboxypeptidase B
  IC50: 3.7 µM
[1]
  CLT50: >=20 uM
Carboxypeptidase B2
  IC50: 0.59 µM
Homo sapiens
  Selectivity: 6.3

## NC1CCC(CC(C(=O)O)c2cnc[nH]2)CC1 (configuration not stated)
Carboxypeptidase B2
  IC50: 7 µM

## CNCCCCC(C(=O)O)c1cnc[nH]1 (configuration not stated)
Carboxypeptidase B2
  IC50: 26 µM

## O=C(O)C(CCC1CCNC1)c1cnc[nH]1 (configuration not stated)
Carboxypeptidase B2
  IC50: > 20 µM

## CC(C)(CN)CCC(C(=O)O)c1c[nH]cn1 (configuration not stated)
Carboxypeptidase B
  IC50: 0.6 µM
Carboxypeptidase B2
  IC50: 0.38 µM
Homo sapiens
  Selectivity: 1.6

## Nc1ccc(CC(C(=O)O)c2c[nH]cn2)cn1 (configuration not stated)
Carboxypeptidase B
  IC50: 0.07 µM
[1]
  CLT50: 0.97 µM
